# Source: patent US20250059185A1 (Hoffmann-La Roche Inc., priority 2021, published 2025)
# Biological target: MAGL (Homo sapiens (Human), UniProt Q99685)
# Experiment: 2-AG assay (MAGL inhibitory activity, hydrolysis of 2-arachidonoylglycerol followed by mass spectrometry)
# Assay type: biochemical
# Details: 50 pM MAGL protein, 15 min pre-incubation, 30 min incubation at RT
# Text: Compounds of formula (II) were profiled for MAGL inhibitory activity by determining the enzymatic activity by following the hydrolysis of the natural substrate 2-arachidonoylglycerol (2-AG) resulting in arachidonic acid, which can be followed by mass spectrometry. This assay is hereinafter abbreviated “2-AG assay”.
# Compounds of formula (II) were profiled for MAGL inhibitory activity by determining the enzymatic activity by following the hydrolysis of the natural substrate 2-arachidonoylglycerol (2-AG) resulting in arachidonic acid, which can be followed by mass spectrometry. This assay is hereinafter abbreviated “2-AG assay”. The 2-AG assay was carried out in 384 well polypropylene assay plates. Compound dilutions were made in 100% DMSO in a polypropylene plate in 3-fold dilution steps to give a final concentration range in the assay from 12.5 μM to 0.8 pM. Compound dilutions were added to MAGL protein in assay buffer (50 mM TRIS, 1 mM EDTA, 0.01% (v/v) Tween-20, 2.5% (v/v) DMSO). After shaking, the plate was incubated for 15 min at RT. To start the reaction, 2-arachidonoylglycerol in assay buffer was added. The final concentrations in the assay was 50 pM for MAGL protein and […] 2-arachidonoylglyerol. After shaking and 30 min incubation at RT, the reaction was quenched by the addition of two assay volumes of acetonitrile containing 4 μM of d8-arachidonic acid. The amount of arachidonic acid formed was traced by an online SPE system (Agilent Rapidfire) coupled to a triple quadrupole mass spectrometer. A C18 SPE cartridge (Agilent G9205A) was used in an acetonitrile/water liquid setup. The mass spectrometer was operated in negative electrospray mode following the mass transitions 303.1→259.1 for arachidonic acid and 311.1→267.0 for d8-arachidonic acid. The activity of the compounds was calculated based on the ratio of intensities [arachidonic acid/d8-arachidonic acid].
# Chain of MAGL (Q99685 whole entry, species assumed): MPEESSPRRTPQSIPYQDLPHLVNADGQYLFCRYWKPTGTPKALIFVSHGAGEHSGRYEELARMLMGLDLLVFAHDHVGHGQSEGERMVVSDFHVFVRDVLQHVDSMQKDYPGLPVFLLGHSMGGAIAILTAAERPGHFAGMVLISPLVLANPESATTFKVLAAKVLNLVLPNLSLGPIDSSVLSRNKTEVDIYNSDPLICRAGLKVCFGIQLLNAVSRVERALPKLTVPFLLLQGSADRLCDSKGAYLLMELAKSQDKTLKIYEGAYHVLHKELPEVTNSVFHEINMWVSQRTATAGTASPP
row,SMILES,IC50 [nM]
1,"C[C@H]1c2nn(C)c(-c3cc(Cl)cc(C4(C(N)=O)CC4)c3)c2CCN1C(=O)c1cc(F)cc(N2CC3(C2)CS(=O)(=O)C3)c1Cl [Example 75, 1-[3-chloro-5-[(7S)-6-[2-chloro-3-(2,2-dioxo-2λ^6-thia-6-azaspiro[3.3]heptan-6-yl)-5-fluoro-benzoyl]-2,7-dimethyl-5,7-dihydro-4H-pyrazolo[3,4-c]pyridin-3-yl]phenyl]cyclopropanecarboxamide]",1240
2,"C[C@H]1c2nn(C)c(-c3cc(Cl)cc(C4(NS(C)(=O)=O)CC4)c3)c2CCN1C(=O)c1cc(F)cc(-c2c[nH]c(C#N)c2)c1Cl [Example 85, N-[1-[3-chloro-5-[(7S)-6-[2-chloro-3-(5-cyano-1H-pyrrol-3-yl)-5-fluoro-benzoyl]-2,7-dimethyl-5,7-dihydro-4H-pyrazolo[3,4-c]pyridin-3-yl]phenyl]cyclopropyl]methanesulfonamide]",13.8
3,"C[C@@H]1c2nn(C)c(-c3cc(F)cc(F)c3)c2CCN1C(=O)c1ccnc(OCC2CNC(=O)O2)c1Cl (stereo partly drawn) [Example 43, 5-[[3-Chloro-4-[(7R)-3-(3,5-difluorophenyl)-2,7-dimethyl-5,7-dihydro-4H-pyrazolo[3,4-c]pyridine-6-carbonyl]-2-pyridyl]oxymethyl]oxazolidin-2-one]",1340
4,"C[C@H]1c2nn(C)c(-c3cncc(C(F)(F)F)n3)c2CCN1C(=O)c1ncn(-c2ccc[nH]c2=O)n1 [Example 67, 3-[3-[(7S)-2,7-dimethyl-3-[6-(trifluoromethyl)pyrazin-2-yl]-5,7-dihydro-4H-pyrazolo[3,4-c]pyridine-6-carbonyl]-1,2,4-triazol-1-yl]-1H-pyridin-2-one]",4220
5,"C[C@H]1c2nn(C)c(-c3cc(F)cc(F)c3)c2CCN1C(=O)c1ncn(-c2cc(F)cnc2O)n1 [Example 34, [(7S)-3-(3,5-Difluorophenyl)-2,7-dimethyl-5,7-dihydro-4H-pyrazolo[3,4-c]pyridin-6-yl]-[1-(5-fluoro-2-hydroxy-3-pyridyl)-1,2,4-triazol-3-yl]methanone]",149
6,"C[C@@H]1c2nn(C)c(-c3cc(Cl)cc(C4(C(N)=O)CC4)c3)c2CCN1C(=O)c1cc(F)cc(-c2c[nH]c(C#N)c2)c1Cl [Example 72, 1-[3-chloro-5-[(7R)-6-[2-chloro-3-(5-cyano-1H-pyrrol-3-yl)-5-fluoro-benzoyl]-2,7-dimethyl-5,7-dihydro-4H-pyrazolo[3,4-c]pyridin-3-yl]phenyl]cyclopropanecarboxamide]",62
7,"C[C@H]1c2nn(C)c(-c3cc(F)cc(F)c3)c2CCN1C(=O)c1cc(F)cc(OC[C@@H]2CNC(=O)N2)c1Cl (single isomer, unassigned) [Example 113]",2.48
8,"C[C@@H]1c2nn(C)c(-c3cc(F)cc(F)c3)c2CCN1C(=O)c1cc(F)cc(N2CC3(C2)CS(=O)(=O)C3)c1Cl [Example 21, [2-Chloro-3-(2,2-dioxo-2λ^6-thia-6-azaspiro[3.3]heptan-6-yl)-5-fluoro-phenyl]-[(7R)-3-(3,5-difluorophenyl)-2,7-dimethyl-5,7-dihydro-4H-pyrazolo[3,4-c]pyridine-6-yl]methanone]",1430
9,"C[C@H]1c2nn(C)c(-c3cc(F)cc(F)c3)c2CCN1C(=O)c1ccnc(OCC2CNC(=O)O2)c1Cl (stereo partly drawn) [Example 42, 5-[[3-Chloro-4-[(7S)-3-(3,5-difluorophenyl)-2,7-dimethyl-5,7-dihydro-4H-pyrazolo[3,4-c]pyridine-6-carbonyl]-2-pyridyl]oxymethyl]oxazolidin-2-one]",26
10,"CC1c2nn(C)c(-c3cc(Cl)cc(S(N)(=O)=O)c3)c2CCN1C(=O)c1cc(F)cc(-c2nc[nH]n2)c1Cl (stereo not drawn) [Example 61, 3-Chloro-5-[6-[2-chloro-5-fluoro-3-(1H-1,2,4-triazol-3-yl)benzoyl]-2,7-dimethyl-5,7-dihydro-4H-pyrazolo[3,4-c]pyridin-3-yl]benzenesulfonamide]",77
11,"COc1cccc(C(=O)N2CCc3c(nn(C)c3-c3cc(Cl)cc(C4(NS(C)(=O)=O)CC4)c3)[C@@H]2C)c1Cl [Example 7, N-[1-[3-Chloro-5-[(7S)-6-(2-chloro-3-methoxy-benzoyl)-2,7-dimethyl-5,7-dihydro-4H-pyrazolo[3,4-c]pyridin-3-yl]phenyl]cyclopropyl]methanesulfonamide]",17

# The next lines start with the values.
row,IC50 [nM],SMILES
1,16.9,"COc1cccc(C(=O)N2CCc3c(nn(C)c3-c3cc(Cl)cc(CC(C)(C)O)c3)[C@@H]2C)c1Cl [Example 95, [(7S)-3-[3-chloro-5-(2-hydroxy-2-methyl-propyl)phenyl]-2,7-dimethyl-5,7-dihydro-4H-pyrazolo[3,4-c]pyridin-6-yl]-(2-chloro-3-methoxy-phenyl)methanone]"
2,2.09,"C[C@H]1c2nn(C)c(-c3cc(F)cc(F)c3)c2CCN1C(=O)c1cccc(OCC2CNC(=O)O2)c1Cl (stereo partly drawn) [Example 110, 5-[[2-chloro-3-[(7S)-3-(3,5-difluorophenyl)-2,7-dimethyl-5,7-dihydro-4H-pyrazolo[3,4-c]pyridine-6-carbonyl]phenoxy]methyl]oxazolidin-2-one]"
3,3080,"COc1cccc(C(=O)N2CCc3c(nn(C)c3-c3cncc(CC(N)=O)c3)[C@@H]2C)c1Cl [Example 18, 2-[5-[(7S)-6-(2-Chloro-3-methoxy-benzoyl)-2,7-dimethyl-5,7-dihydro-4H-pyrazolo[3,4-c]pyridin-3-yl]-3-pyridyl]acetamide]"
4,1680,"C[C@@H]1c2nn(C)c(-c3cc(F)cc(F)c3)c2CCN1C(=O)c1ccc(CCC2CNC(=O)C2)cc1Cl (stereo partly drawn) [Example 48, 4-[2-[3-Chloro-4-[(7R)-3-(3,5-difluorophenyl)-2,7-dimethyl-5,7-dihydro-4H-pyrazolo[3,4-c]pyridine-6-carbonyl]phenyl]ethyl]pyrrolidin-2-one]"
5,2380,"COc1cccc(C(=O)N2CCn3c(-c4cccc(Cl)c4)nnc3[C@@H]2C)c1Cl [Example 116, (2-chloro-3-methoxy-phenyl)-[(5S)-9-(3-chlorophenyl)-5-methyl-1,4,7,8-tetrazabicyclo[4.3.0]nona-1(9),6-dien-4-yl]methanone]"
6,84,"CC1c2nn(C)c(-c3cc(F)cc(F)c3)c2CCN1C(=O)c1cc(-c2cccc(C#N)c2)ccc1F (stereo not drawn) [Example 26, 3-[3-[3-(3,5-Difluorophenyl)-2,7-dimethyl-5,7-dihydro-4H-pyrazolo[3,4-c]pyridine-6-carbonyl]-4-fluoro-phenyl]benzonitrile]"
7,5,"C[C@H]1c2nn(C)c(-c3cc(F)cc(F)c3)c2CCN1C(=O)c1cc(F)cc(OCC2CNC(=O)O2)c1Cl (single isomer, unassigned) [Example 50, 5-[[2-Chloro-3-[3-(3,5-difluorophenyl)-2,7-dimethyl-5,7-dihydro-4H-pyrazolo[3,4-c]pyridine-6-carbonyl]-5-fluoro-phenoxy]methyl]oxazolidin-2-one]"
8,304,"CC1c2nn(C)c(-c3cncc(C(F)(F)F)n3)c2CCN1C(=O)c1cc(F)cc(N2CC(S(N)(=O)=O)C2)c1Cl (stereo not drawn) [Example 58, 1-[2-Chloro-3-[2,7-dimethyl-3-[6-(trifluoromethyl)pyrazin-2-yl]-5,7-dihydro-4H-pyrazolo[3,4-c]pyridine-6-carbonyl]-5-fluoro-phenyl]azetidine-3-sulfonamide]"
9,734,"C[C@@H]1c2nn(C)c(-c3cc(F)c(F)c(F)c3)c2CCN1C(=O)c1cc(F)cc(-c2c[nH]c(C#N)c2)c1Cl [Example 93, 4-[2-chloro-3-[(7R)-2,7-dimethyl-3-(3,4,5-trifluorophenyl)-5,7-dihydro-4H-pyrazolo[3,4-c]pyridine-6-carbonyl]-5-fluoro-phenyl]-1H-pyrrole-2-carbonitrile]"
10,27,"C[C@H]1c2nn(C)c(-c3cc(F)cc(F)c3)c2CCN1C(=O)c1cc(F)cc(N2CC(S(C)(=O)=O)C2)c1Cl [Example 23, [2-Chloro-5-fluoro-3-(3-methylsulfonylazetidin-1-yl)phenyl]-[(7S)-3-(3,5-difluorophenyl)-2,7-dimethyl-5,7-dihydro-4H-pyrazolo[3,4-c]pyridin-6-yl]methanone]"
11,59,"COc1cccc(C(=O)N2CCc3c(nn(C)c3-c3cc(Cl)cc(C4(S(C)(=O)=O)CC4)c3)[C@@H]2C)c1Cl [Example 5, (2-Chloro-3-methoxy-phenyl)-[(7S)-3-[3-chloro-5-(1-methylsulfonylcyclopropyl)phenyl]-2,7-dimethyl-5,7-dihydro-4H-pyrazolo[3,4-c]pyridin-6-yl]methanone]"
12,53,"CC1c2nn(C)c(-c3cc(F)cc(F)c3)c2CCN1C(=O)c1ccnc(OCC2CNC(=O)O2)c1Cl (stereo not drawn) [Example 41, 5-[[3-Chloro-4-[3-(3,5-difluorophenyl)-2,7-dimethyl-5,7-dihydro-4H-pyrazolo[3,4-c]pyridine-6-carbonyl]-2-pyridyl]oxymethyl]oxazolidin-2-one]"
13,2000,"C[C@@H]1c2nn(C)c(-c3cc(F)cc(F)c3)c2CCN1C(=O)c1cc(F)cc(OCC2CNC(=O)O2)c1Cl (single isomer, unassigned) [Example 52, 5-[[2-Chloro-3-[3-(3,5-difluorophenyl)-2,7-dimethyl-5,7-dihydro-4H-pyrazolo[3,4-c]pyridine-6-carbonyl]-5-fluoro-phenoxy]methyl]oxazolidin-2-one]"
